# Test results published in PMC8713283 (Journal of Medicinal Chemistry, 2021).
# “And” between values parts separate entries of the source, which are not always exact repeats. Identical values can stand only once.
# Key:
# VHL + Brd2BD2 = target: T1, VHL + Brd2BD2 (Homo sapiens, UniProt P25440+P40337); assay: FP competition, ternary binding to VHL with Brd2BD2; conditions: for ΔpKd: Log10(α) = pKd ternary - pKd binary
# T1 construct: Brd2-BD2 (344–455); His6 (N, cleaved yes); made in house; host or cells: E. coli
# VHL + Brd3BD2 = target: T2, VHL + Brd3BD2 (Homo sapiens, UniProt P40337+Q15059); assay: FP competition, ternary binding to VHL with Brd3BD2; conditions: for ΔpKd: Log10(α) = pKd ternary - pKd binary; for Cooperativity α: α = Kd binary/Kd ternary
# T2 construct: Brd3-BD2 (306–416); His6 (N, cleaved yes); made in house; host or cells: E. coli
# VHL + Brd4BD2 = target: T3, VHL + Brd4BD2 (Homo sapiens, UniProt O60885+P40337); format: binding; conditions: for ΔpKd: Log10(α) = pKd ternary - pKd binary
# T3 construct: Brd4-BD2 (333–460); His6 (N, cleaved yes); made in house; host or cells: E. coli
# VHL + Brd3BD1 = VHL + Brd3BD1 (Homo sapiens, UniProt P40337+Q15059); conditions: for ΔpKd: Log10(α) = pKd ternary - pKd binary; for Cooperativity α: α = Kd binary/Kd ternary
# VHL + Brd4BD1 = VHL + Brd4BD1 (Homo sapiens, UniProt O60885+P40337); conditions: for ΔpKd: Log10(α) = pKd ternary - pKd binary; for Cooperativity α: α = Kd binary/Kd ternary
# P-gp (human MDR1) = assay: in vitro; conditions: dog; for Papp B→A at 5 µM / Papp A→B at 5 µM: MDCK-MDR1; for efflux ratio at 5 µM: MDCK-MDR1, Efflux ratio B-A/A-B, MDCK-MDR1, 5 µM, N = 2
# VHL + Brd2BD1 = target: T4, VHL + Brd2BD1 (Homo sapiens, UniProt P25440+P40337); assay: FP competition, ternary binding to VHL with Brd2BD1
# T4 construct: His6 (N, cleaved yes); made in house; host or cells: E. coli
# Brd4 = target: T5, Brd4 (Homo sapiens, UniProt O60885); assay: Western blot degradation of Brd4 in HEK293 cells; format: cell-based; conditions: HEK293, 4 h, 10 μM, N = 1
# T5 construct: endogenous in cells; host or cells: HEK293
# Brd2 = target: T6, Brd2 (Homo sapiens, UniProt P25440); assay: Western blot degradation of Brd2 in HEK293 cells; format: cell-based
# T6 construct: endogenous in cells; host or cells: HEK293
# [1] = Log D(dec/w) shake flask partition coefficient; format: physicochemical; conditions: 1,9-decadiene/PBS; 1,9-decadiene and PBS pH 7.4 shake flask partition coefficient
# [2] = LPEester – LPEamide by amide–ester matched pairs
# [3] = human
# in vitro = conditions: PAMPA
Structure (SMILES),ΔpKd (VHL + Brd2BD2),ΔpKd (VHL + Brd3BD2),Cooperativity α (VHL + Brd3BD2),ΔpKd (VHL + Brd4BD2),ΔpKd (VHL + Brd3BD1),Cooperativity α (VHL + Brd3BD1),ΔpKd (VHL + Brd4BD1),Cooperativity α (VHL + Brd4BD1),Papp B→A at 5 µM (P-gp (human MDR1)) [×10⁻⁶ cm/s],logD hydrocarbon water [1],ΔLPE [2],Plasma stability [3] [%],Papp A→B at 5 µM (P-gp (human MDR1)) [×10⁻⁶ cm/s],efflux ratio at 5 µM (P-gp (human MDR1)),further results
"Cc1ncsc1-c1ccc(CNC(=O)[C@@H]2C[C@@H](O)CN2C(=O)[C@@H](NC(=O)COCCOCCOCCNC(=O)C[C@@H]2N=C(c3ccc(Cl)cc3)c3c(sc(C)c3C)-n3c(C)nnc32)C(C)(C)C)cc1 [Compound 21, MZ1]",1.46,0.73,5.3,1.73,0.45,2.8,0.62,4.2,1.5,,,,,,PAMPA Pe: 0.01 ×10^–6 cm/s
"Cc1ncsc1-c1ccc([C@H](C)NC(=O)[C@@H]2C[C@@H](O)CN2C(=O)[C@@H](NC(=O)COCCCOCCNC(=O)C[C@@H]2N=C(c3ccc(Cl)cc3)c3c(sc(C)c3C)-n3c(C)nnc32)C(C)(C)C)cc1 [Compound 22, ARV-771]",0.66,0.64,4.3,1.12,0.30,2.0,0.42,2.6,,,,,,,"ΔpKd (VHL + Brd2BD1; Log10(α) = pKd ternary - pKd binary): 0.38; Cooperativity α (VHL + Brd2BD1; α = Kd binary/Kd ternary): 2.4; Kd (VHL + Brd2BD2; read-out: pKd ternary (converted)): 7.41 nM; Cooperativity α (VHL + Brd2BD2; α = Kd binary/Kd ternary): 4.6; Cooperativity α (VHL + Brd4BD2; α = Kd binary/Kd ternary): 13; Hook effect, Brd4 protein levels (Brd4): exhibited a hook effect; pDC50 Brd2 (Brd2; HEK293, 4 h, 1 μM to 100 pM, mean ± S.E., three experiments): 6.9 ± 0.2 and 7.4 ± 0.1; DC50 (Brd2; read-out: DC50 Brd2, HEK293 cells): 42 nM"
"CCCC(=O)OCCCCCC(=O)N[C@H](C(=O)N1C[C@H](O)C[C@H]1C(=O)NCc1ccc(-c2scnc2C)cc1)C(C)(C)C [Compound 9, 6-(((S)-1-((2S,4R)-4-Hydroxy-2-((4-(4-methylthiazol-5-yl)benzyl)carbamoyl)pyrrolidin-1-yl)-3,3-dimethyl-1-oxobutan-2-yl)amino)-6-oxohexyl Butyrate]",,,,,,,,,47,-0.5,1.1,13 ± 1,0.9,55,Papp (in vitro): 6.5 ×10⁻⁶ cm/s
"Cc1ncsc1-c1ccc(CNC(=O)[C@@H]2C[C@@H](O)CN2C(=O)[C@@H](NC(=O)CCCCCOC(=O)CC(c2ccccc2)c2ccccc2)C(C)(C)C)cc1 [Compound 13, 6-(((S)-1-((2S,4R)-4-Hydroxy-2-((4-(4-methylthiazol-5-yl)benzyl)carbamoyl)pyrrolidin-1-yl)-3,3-dimethyl-1-oxobutan-2-yl)amino)-6-oxohexyl 3,3-diphenylpropanoate]",,,,,,,,,13.9,1.9,1.6,58 ± 6,0.2,84,
"Cc1ncsc1-c1ccc(CNC(=O)[C@@H]2C[C@@H](O)CN2C(=O)[C@@H](NC(=O)CCCCCOC(=O)CC23CC4CC(CC(C4)C2)C3)C(C)(C)C)cc1 [Compound 12, 6-(((S)-1-((2S,4R)-4-Hydroxy-2-((4-(4-methylthiazol-5-yl)benzyl)carbamoyl)pyrrolidin-1-yl)-3,3-dimethyl-1-oxobutan-2-yl)amino)-6-oxohexyl 2-(adamantan-1-yl)acetate]",,,,,,,,,4.5,2.4,1.8,80 ± 11,,,
